Values quoted from earlier work in patent US20140213605A1, “METHODS FOR TREATING EYE DISORDERS USING OPIOID RECEPTOR ANTAGONISTS” (priority 2013, published 2014).

Tests used:
[1] = in vivo
[2] = test system: rat cornea

Which “Bound to plasma protein” value [1] does the source give for `Oc1ccc2c3c1O[C@H]1[C@H](O)CC[C@@]4(O)[C@@H](C2)N(CC2CC2)CC[C@]314` [6-β-naltrexol] here?
Its value is “Approximately 20%”.

For `O=C1CC[C@@]2(O)[C@H]3Cc4ccc(O)c5c4[C@@]2(CCN3CC2CC2)[C@H]1O5` [Naltrexone], which “Effect on incidence of re-epithelialization of the rat cornea” value ([2]; systemically administered) is on record?
Its value is “markedly influenced the incidence of re-epithelialization”.

And the “Effect on re-epithelialization of the rat cornea” value ([2]; topical application in sterile water)?
Its value is “not effective”.

And the Excreted unchanged [1]?
Its Excreted unchanged is “Less than 1%”.
